Legend:
[1] = Stability of compounds in human plasma; type: in vitro ADME; conditions: 37° C., 2 or 3 hours
Description: Stability of Compounds in Human Plasma:
A 16 μL aliquot of the Gd or Mn complex (1.0 mM) was added to 500 μL of human plasma (Lampire Biological laboratories). The solution was then incubated for 2 or 3 hours at 37° C. Aliquots (50 μL) were removed at 1, 2 or 3 hours. Proteins were precipitated by the addition of 150 μL of acetonitrile and removed following centrifugation. The supernatant was then analyzed using HPLC-ICP-MS. No unchelated gadolinium was observed nor the appearance of any new Gd/Mn-containing species.

[2] = test system: ECM proteins from fibrotic rat liver; test: Relaxivity measurements in ECM; type: binding; conditions: for relaxivity in ECM: PBS, pH 7.4, 2 h, 37° C., 1.41T; for relaxivity in ECM with 100-fold excess of hydrazine: aldehydes blocked with N2H4
Description: Liver fibrosis was induced in male Sprague Dawley rats by ligation of the common bile duct (CD®, Charles River Labs, Wilmington, MA). Ten days after common bile duct ligation, the fibrotic liver was harvested and sequential extractions were performed using the CNMCS (Cytosol/Nucleus/Membrane/Cytoskeleton) Compartmental Protein Extraction kit (Cytomol, Union City, CA) according to manufacturer's instructions. In brief, frozen tissues (150-200 mg) were homogenized and with solvents provided in the kit to sequentially to remove: cytosolic proteins, nuclear proteins, membrane proteins, and cytoskeletal proteins, leaving a final insoluble fraction enriched for ECM proteins.
Relaxivity Measurements in ECM
The enriched ECM proteins from 800 mg of fibrotic rat liver were suspended in 1 ml PBS. The ECM protein concentration was about 10% (5 mg in a 50 μL aliquot determined by weight after lyophilization). An aliquot of the solution (50 μL) was treated for 2 h at 37° C. with the corresponding molecular probe at a range of concentrations (0.01-0.1 mM) and then longitudinal (T1) relaxation measurements was recorded using a Bruker mq60 Minispec at 1.41 T and 37° C. For the blocking experiment with N2H4, a 100 fold-excess of N2H4 referred to the concentration of molecular probe was added to the solution before the incubation. Longitudinal (T1) relaxation times were measured via an inversion recovery experiment using 10 inversions of duration ranging between 0.05×T1 and 10×T1. Relaxivity (r1) was determined from the slope of a plot of 1/T1 vs metal concentration for 4 concentrations.

[3] = biological target: T1, BSA-ALD (Bos taurus, UniProt P02769); test: Binding yield measurements of Gd^3+ complex with BSA^Ald (ultrafiltration, ICP-MS); parameters: species or system bovine; conditions: pH 7.4, PBS, 37° C., 12 h, ultrafiltration 5,000 Da cut-off
T1 construct: made in house; host or cells: no expression host: BSA oxidised chemically with sodium ascorbate, ferric chloride and H2O2, then desalted on PD-10
T1 sequence (P02769 25-607): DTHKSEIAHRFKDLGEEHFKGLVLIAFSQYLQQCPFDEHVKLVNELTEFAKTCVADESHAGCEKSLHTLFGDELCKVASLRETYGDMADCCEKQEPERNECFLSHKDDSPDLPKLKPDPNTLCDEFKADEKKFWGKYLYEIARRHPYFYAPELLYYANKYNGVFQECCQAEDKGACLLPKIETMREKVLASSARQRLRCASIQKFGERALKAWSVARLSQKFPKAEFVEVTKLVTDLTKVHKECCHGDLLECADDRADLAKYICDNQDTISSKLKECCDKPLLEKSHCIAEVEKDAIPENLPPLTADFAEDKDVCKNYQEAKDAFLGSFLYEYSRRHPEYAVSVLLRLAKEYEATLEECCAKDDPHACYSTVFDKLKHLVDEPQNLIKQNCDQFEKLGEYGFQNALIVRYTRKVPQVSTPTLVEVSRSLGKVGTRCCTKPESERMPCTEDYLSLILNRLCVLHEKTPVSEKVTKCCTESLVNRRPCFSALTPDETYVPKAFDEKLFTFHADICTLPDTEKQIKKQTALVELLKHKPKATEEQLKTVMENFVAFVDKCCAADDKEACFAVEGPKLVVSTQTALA
Description: FIG. 48. […] Binding concentration of the probes to BSA^Ald (pH 7.4, PBS, 37° C., 12 h) as determined by ICP-MS following an ultrafiltration (5,000 Da cut-off) to separate the protein-bound probe from the unbound probe. Slope gives the binding yield.
Alternatively, preparation of BSA^Ald and binding of Gd^3+ probe to protein was carried out according to modified procedures. To a solution of bovine serum albumin (BSA) (100 mg) dissolved in phosphate buffered saline (4 mL, pH 7.4, 0.25 mM) was added sodium ascorbate (20 mg), ferric chloride (120 μL, 10 mM) and 20 μL H2O2 (30% w). The reaction was stirred at 37° C. for 24 h, and sodium ascorbate (20 mg) was added repeatedly every 8 h. After 24 h, the protein was purified using PD-10 Sephadex G25 desalting columns (GE Healthcare), eluted with PBS. Protein concentration was assessed using the ‘Micro BCA Protein Assay Kit’ (Thermo Scientific, 23235). Protein carbonyl concentration was determined by ‘Protein Carbonyl Content Assay Kit’ (Sigma-Aldrich, MAK094-1KT). […] The protein solutions were kept at a concentration of 20 mg/mL for further use.

[4] = Affinity measurements of Gd^3+ complex with butyraldehyde (HPLC-ICP-MS); type: physicochemical
Description: FIG. 43A. […] FIG. 43B. Affinity measurements of Gd^3+ complex with butyraldehyde. Concentration-dependent binding of the probes to butyraldehyde as determined by HPLC-ICP-MS (pH 7.4 in PBS, 12 h).

[5] = Reaction rates with butyraldehyde measured by HPLC-ICP-MS (Method B); type: physicochemical; conditions: Method b: butyraldehyde 100 μM, probe 25 μM, pH 7.40
Description: Method B: Reaction Rates of Compounds with Butyraldehyde Measured by HPLC-ICP-MS
The reactions were conducted in pH 7.40 phosphate-buffered with butyraldehyde concentration of 100 μM and hydrazine probes at 25 μM. Concentrations of unreacted starting material and condensation products were determined at 10 min time intervals over 2 hours based on their relative integrations. The values were fit to a standard first order rate constant linear equation and the rate constant was extracted from the slope.
Reaction with Butyraldehyde Monitored by HPLC-ICP-MS
Reactions were conducted in pH 7.4 phosphate-buffered saline with butyraldehyde concentration of 100 μM and hydrazine probes at 25 μM. Concentrations of unreacted starting material and condensation products were determined based on their relative integrations at 12 min time intervals over 2 hours.

[6] = test system: PDAC6 xenograft tumor; test: MR imaging of PDAC6 tumor xenograft model; type: in vivo, mouse; conditions: 60 min post injection
Description: Male NU(NCr)-Foxn1nu nude mice at 6-8 weeks of age were provided by Charles River Labs, Wilmington, MA. A total of 1×10^7 patient derived metastatic pancreatic cancer cells (PDAC6) were injected into the subcutaneous space of the right lower back of the mice (n=4 per group). Mice were imaged with Mn-17 (100 μmol/kg) 4 weeks after implanting the tumor for pretreatment imaging, and another group of mice were imaged 3-days post treatment with FOLFIRINOX (Folinate 50 mg/kg, Oxaliplaton 2.5 mg/kg, Irinotecan 25 mg/kg, Fluorouracil 25 mg/kg).
For PDAC6 xenograft tumor imaging, images were acquired with following sequences and parameters: 3D T1 weighted FLASH (TR/TE/FA=14 ms/[…]/30°, 0.4 mm isotropic spatial resolution, field of view (FOV) 35 mm×35 mm, two average, acquisition time=4.3 min) images were acquired prior to and dynamically post injection of contrast agent; 3D RARE (RARE, TR/TE/FA=[…]/57 ms/180°, 0.3 mm isotropic spatial resolution, field of view (FOV) 35 mm×60 mm, one average, acquisition time=8.1 min) image was also acquired.
For tumor imaging analysis, RARE image and first FLASH image post-contrast were used to define volumetric region of interest (ROIs) in the tumor that excluded necrosis region. ΔCNR was calculated by eq 22.

[7] = 3-days post treatment (FOLFIRINOX)

Row | SMILES | stability in human plasma (HPLC-ICP-MS) [1] | relaxivity in ECM [2] | relaxivity in ECM with 100-fold excess of hydrazine [2] | equilibrium binding to BSA^Ald (binding yield) [3] | fold improved affinity over Gd-11 and Gd-CHyd [4] | k (second order rate constant) [5] | ΔCNR of PDAC6 xenograft tumor [6, 7] | ΔCNR of PDAC6 xenograft tumor ([6]; Pre-treatment)
1 | NN1CCN(C(=O)CCC(C(=O)[O-])N2CCN(CC(=O)[O-])CCN(CC(=O)[O-])CCN(C(CCC(=O)N3CCN(N)CC3)C(=O)[O-])CC2)CC1.[Gd+3] (stereo not drawn) [Gd-9, cis-1,4-Gd-(CHyd)2] | lack of de-chelation or formation of Gd-containing metabolites | 7.8 mM⁻¹ s⁻¹ | 6.6 mM⁻¹ s⁻¹ | 39.2% | 2 fold | 3.6 M⁻¹ s⁻¹ |  | 
2 | NN1CCN(C(=O)CCC(C(=O)[O-])N2CCN(CC(=O)[O-])CCN(C(CCC(=O)N3CCN(N)CC3)C(=O)[O-])CCN(CC(=O)[O-])CC2)CC1.[Gd+3] (stereo not drawn) [Gd-10, trans-1,7-Gd-(CHyd)2] | lack of de-chelation or formation of Gd-containing metabolites | 7.2 mM⁻¹ s⁻¹ | 6.7 mM⁻¹ s⁻¹ | 28.1% | 2 fold | 3.5 M⁻¹ s⁻¹ |  | 
3 | NNCC(=O)NCCCN1CCN(CC(=O)[O-])Cc2cccc(n2)CN(CC(=O)[O-])CC1.[Mn+2] [Mn-17] |  |  |  |  |  |  | 6.4 ± 1.2 | 4.6 ± 1.0
4 | CN(C)C(CCC(=O)NCCCN1CCN(CC(=O)[O-])Cc2cccc(n2)CN(CC(=O)[O-])CC1)C(=O)O.[Mn+2] (stereo not shown) [Mn-18] |  |  |  |  |  |  | 0.4 ± 0.3 | 0.4 ± 0.3

Reference: US20240285808A1, “MOLECULAR PROBES FOR IN VIVO DETECTION OF ALDEHYDES” (The General Hospital Corporation, priority 2021, published 2024)
